Measured values as given in patent US5939318A, “Cholesterol disposal fusion enzymes” (Regents of the University of California, priority 1996, dated 1999).

Tests used:
[1] = biological target: human P450scc (SEQ ID NO: 2), natural three-component system co-expressed with adrenodoxin and adrenodoxin reductase (Homo sapiens, UniProt P05108); conditions: substrate 0.5 to 5.0 μM, 24 h incubation, triply transfected COS-1 cells
Protocol: (§1) Cells were maintained at 37° C. in 5% CO2.
(§2) All samples were assayed in triplicate.

[2] = biological target: fusion enzyme F2, H3N-P450scc-AdRed-Adx-COOH (human P450scc, adrenodoxin reductase 18- form, adrenodoxin) (Homo sapiens, UniProt P05108+P22570); conditions: substrate 0.5 to 5.0 μM, 24 h incubation, F2-transfected COS-1 cells
Protocol: as §1, §2

cytochrome P450scc = biological target: T1, cytochrome P450scc (Bos taurus, UniProt P00189); conditions: Morisaki et al 1980; cited from earlier work
T1 sequence (P00189 40-520): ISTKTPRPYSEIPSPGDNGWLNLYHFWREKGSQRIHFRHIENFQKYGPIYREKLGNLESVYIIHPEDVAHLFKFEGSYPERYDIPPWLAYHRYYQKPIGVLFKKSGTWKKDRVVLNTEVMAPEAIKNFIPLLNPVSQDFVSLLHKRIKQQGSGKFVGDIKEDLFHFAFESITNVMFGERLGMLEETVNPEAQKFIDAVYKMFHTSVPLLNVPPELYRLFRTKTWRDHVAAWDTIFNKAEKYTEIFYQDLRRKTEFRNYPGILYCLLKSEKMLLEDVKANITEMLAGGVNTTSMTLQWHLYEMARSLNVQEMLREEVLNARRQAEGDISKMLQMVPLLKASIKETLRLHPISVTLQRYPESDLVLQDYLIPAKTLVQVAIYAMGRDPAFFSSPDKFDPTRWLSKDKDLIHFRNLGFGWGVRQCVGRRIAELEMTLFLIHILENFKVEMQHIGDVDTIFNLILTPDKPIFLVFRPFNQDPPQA

human P450scc (SEQ ID NO: 2), natural three-component system co-expressed with adrenodoxin and adrenodoxin reductase, sequence (P05108 40-521 I301M): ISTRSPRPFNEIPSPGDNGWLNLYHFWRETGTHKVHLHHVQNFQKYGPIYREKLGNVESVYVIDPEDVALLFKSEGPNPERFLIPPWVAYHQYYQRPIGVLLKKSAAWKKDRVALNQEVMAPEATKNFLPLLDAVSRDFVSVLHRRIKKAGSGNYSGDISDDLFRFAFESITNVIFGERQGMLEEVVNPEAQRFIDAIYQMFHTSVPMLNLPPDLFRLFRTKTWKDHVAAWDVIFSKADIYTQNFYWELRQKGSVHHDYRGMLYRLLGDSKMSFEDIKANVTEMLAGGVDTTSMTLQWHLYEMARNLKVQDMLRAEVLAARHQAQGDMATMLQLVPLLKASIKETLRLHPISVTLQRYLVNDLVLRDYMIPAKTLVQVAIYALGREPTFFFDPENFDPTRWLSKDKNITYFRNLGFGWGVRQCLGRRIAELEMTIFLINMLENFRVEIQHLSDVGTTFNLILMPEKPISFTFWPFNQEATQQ
fusion enzyme F2, H3N-P450scc-AdRed-Adx-COOH (human P450scc, adrenodoxin reductase 18- form, adrenodoxin), sequence (P05108+P22570 fused): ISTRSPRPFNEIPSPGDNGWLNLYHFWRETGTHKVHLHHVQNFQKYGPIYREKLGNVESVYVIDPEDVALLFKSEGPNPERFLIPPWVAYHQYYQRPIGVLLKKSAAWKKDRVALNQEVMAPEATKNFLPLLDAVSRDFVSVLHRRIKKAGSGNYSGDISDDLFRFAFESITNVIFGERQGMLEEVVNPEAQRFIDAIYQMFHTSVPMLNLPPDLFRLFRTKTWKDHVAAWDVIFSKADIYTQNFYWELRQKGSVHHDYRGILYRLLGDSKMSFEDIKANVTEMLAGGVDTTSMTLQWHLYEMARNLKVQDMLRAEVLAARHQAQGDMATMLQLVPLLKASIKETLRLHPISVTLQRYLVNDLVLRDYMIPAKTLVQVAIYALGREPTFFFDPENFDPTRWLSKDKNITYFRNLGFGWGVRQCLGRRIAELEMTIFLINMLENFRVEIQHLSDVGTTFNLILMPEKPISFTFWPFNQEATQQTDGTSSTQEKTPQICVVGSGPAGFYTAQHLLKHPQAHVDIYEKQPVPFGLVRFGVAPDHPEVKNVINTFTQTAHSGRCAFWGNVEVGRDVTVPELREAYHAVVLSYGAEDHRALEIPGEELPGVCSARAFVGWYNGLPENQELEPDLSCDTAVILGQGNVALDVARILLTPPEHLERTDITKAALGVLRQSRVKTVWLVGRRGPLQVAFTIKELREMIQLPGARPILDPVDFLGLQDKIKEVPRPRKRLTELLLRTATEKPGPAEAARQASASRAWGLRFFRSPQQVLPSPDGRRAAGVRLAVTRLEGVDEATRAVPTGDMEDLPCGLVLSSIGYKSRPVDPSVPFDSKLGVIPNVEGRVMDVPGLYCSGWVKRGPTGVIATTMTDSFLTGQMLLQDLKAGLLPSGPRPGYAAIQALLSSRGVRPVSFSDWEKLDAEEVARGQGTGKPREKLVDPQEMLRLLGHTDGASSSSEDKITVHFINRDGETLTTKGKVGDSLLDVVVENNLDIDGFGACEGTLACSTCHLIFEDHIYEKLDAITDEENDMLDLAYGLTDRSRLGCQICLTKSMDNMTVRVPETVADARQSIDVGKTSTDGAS

Compound | Vmax [1] | Km ([1]; dose-response data) | Km [2] | Vmax ([2]; pregnenolone in culture medium) | turnover (cholesterol converted per enzyme) (cytochrome P450scc)
CC(C)CC[C@@H](O)[C@@H](C)[C@H]1CC[C@H]2[C@@H]3CC=C4C[C@@H](O)CC[C@]4(C)[C@H]3CC[C@]12C [22R-hydroxycholesterol] | 1.7 ng pregnenolone/ml of culture medium/24 h | 0.37 µM | 2.85 µM | 9.1 ng/ml/24 h | –
CC(C)CCC[C@@H](C)[C@H]1CC[C@H]2[C@@H]3CC=C4C[C@@H](O)CC[C@]4(C)[C@H]3CC[C@]12C [cholesterol] | – | – | – | – | about 1 mole of cholesterol per mole of enzyme per second
